This assay deals with T1, GABAA receptor α2 β3 γ2 (wt) (Homo sapiens, UniProt P18507+P28472+P47869).
T1 construct: expressed in transfected cells; host or cells: CHO-K1 (ATCC No. CCL61)
As to the kind of experiment: [^3H]-Muscimol binding, wild-type receptor. Particulars: wt α2 β3 γ2, membranes from CHO-K1 cells. The procedure: Binding studies were performed using standard methods. Membranes were prepared from CHO-K1 cells expressing recombinant GABAAR subunits. The cells were washed in PBS (Life Technologies), trypsinized, washed twice in tris-citrate buffer (50 mM, pH 7.1) and centrifuged for 10 minutes at 5,000 g.
Membranes were resuspended in membrane wash buffer [20 mM KH2PO4K2HPO4, pH 7.5, 50 mM KCl, 0.025% (w/v) NaN3, and various protease inhibitors (1 mM EDTA, 2 mM benzamidine chloride, 0.1 mM benzethonium chloride, 50 U/ml bacitracin, 0.3 mM phenylmethylsulfonyl fluoride, 10 mg/I ovomucoid trypsin inhibitor, 10 mg/l soybean trypsin inhibitor)] and centrifuged for 30 minutes at 177,000 g and 4° C. The pellet was resuspended in binding assay buffer (20 mM KH2PO4/K2HPO4, pH 7.5 and 100 mM KCl) to a protein concentration of 1 mg/ml and homogenized just before use. Binding was performed with 1, 3, 10, 30, 100 or 300 nM of [^3H]-muscimol (20 Ci/mmol, Dupont-New England Nuclear) in triplicate in a final volume of 250 μl containing 200 μg of protein, and non-specific binding was determined in the presence of 1 mM GABA (Sigma). Samples were incubated at 4° C. for 30 minutes and labelled membranes were harvested on a Brandel cell harvester using GF/B filters (Whatman). The filters were washed with 3×4 ml binding assay buffer and the amount of radioactivity was determined by liquid scintillation counting. […]

T1 sequence (P47869 29-451): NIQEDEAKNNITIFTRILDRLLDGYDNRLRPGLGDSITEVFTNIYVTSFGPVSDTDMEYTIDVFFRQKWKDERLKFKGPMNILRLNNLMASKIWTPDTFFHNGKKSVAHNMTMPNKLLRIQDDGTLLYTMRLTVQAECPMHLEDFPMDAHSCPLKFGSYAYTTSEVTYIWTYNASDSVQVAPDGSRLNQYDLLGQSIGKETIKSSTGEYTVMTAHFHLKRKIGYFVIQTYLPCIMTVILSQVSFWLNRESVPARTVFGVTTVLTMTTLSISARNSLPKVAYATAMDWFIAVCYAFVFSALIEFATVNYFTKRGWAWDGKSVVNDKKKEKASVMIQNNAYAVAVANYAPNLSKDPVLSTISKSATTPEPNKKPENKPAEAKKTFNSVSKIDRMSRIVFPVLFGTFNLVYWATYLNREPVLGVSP
T1 sequence (P28472 26-473): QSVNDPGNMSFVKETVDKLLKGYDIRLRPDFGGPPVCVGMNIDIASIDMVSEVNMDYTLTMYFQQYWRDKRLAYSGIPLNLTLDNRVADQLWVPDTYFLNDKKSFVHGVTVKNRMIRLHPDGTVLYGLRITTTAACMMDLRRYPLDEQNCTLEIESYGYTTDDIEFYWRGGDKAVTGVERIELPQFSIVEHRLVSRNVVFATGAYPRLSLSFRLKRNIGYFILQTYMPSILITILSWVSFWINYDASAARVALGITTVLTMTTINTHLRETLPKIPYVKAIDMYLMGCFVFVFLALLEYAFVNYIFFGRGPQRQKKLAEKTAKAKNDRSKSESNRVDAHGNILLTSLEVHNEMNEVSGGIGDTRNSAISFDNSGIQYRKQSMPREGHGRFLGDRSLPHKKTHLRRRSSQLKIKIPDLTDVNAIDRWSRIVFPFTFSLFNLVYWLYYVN
T1 sequence (P18507 40-475): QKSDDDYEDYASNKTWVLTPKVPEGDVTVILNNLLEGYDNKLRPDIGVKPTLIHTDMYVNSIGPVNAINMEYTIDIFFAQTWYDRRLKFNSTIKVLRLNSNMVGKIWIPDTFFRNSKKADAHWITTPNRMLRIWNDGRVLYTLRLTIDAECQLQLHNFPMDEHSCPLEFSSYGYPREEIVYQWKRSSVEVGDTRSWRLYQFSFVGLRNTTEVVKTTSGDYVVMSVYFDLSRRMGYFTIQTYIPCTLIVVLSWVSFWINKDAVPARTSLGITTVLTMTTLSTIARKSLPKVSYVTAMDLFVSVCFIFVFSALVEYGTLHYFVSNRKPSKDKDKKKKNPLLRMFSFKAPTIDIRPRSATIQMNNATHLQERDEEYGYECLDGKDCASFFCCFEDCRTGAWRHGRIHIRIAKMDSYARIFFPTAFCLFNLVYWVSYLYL

Take `NCc1cc(=O)[nH]o1` [[^3H] Muscimol, Muscimol]: the equilibrium dissociation constant (Kd) was determined as 54.7 ± 14.7 nM.
